{"source": "ChEMBL document CHEMBL1201862", "about": "“PubChem BioAssay data set” (2004)", "key": {"[1]": {"biological_target": "T1, Sphingosine 1-phosphate receptor 4 (Homo sapiens, UniProt O95977)", "T1 sequence (O95977 whole entry)": "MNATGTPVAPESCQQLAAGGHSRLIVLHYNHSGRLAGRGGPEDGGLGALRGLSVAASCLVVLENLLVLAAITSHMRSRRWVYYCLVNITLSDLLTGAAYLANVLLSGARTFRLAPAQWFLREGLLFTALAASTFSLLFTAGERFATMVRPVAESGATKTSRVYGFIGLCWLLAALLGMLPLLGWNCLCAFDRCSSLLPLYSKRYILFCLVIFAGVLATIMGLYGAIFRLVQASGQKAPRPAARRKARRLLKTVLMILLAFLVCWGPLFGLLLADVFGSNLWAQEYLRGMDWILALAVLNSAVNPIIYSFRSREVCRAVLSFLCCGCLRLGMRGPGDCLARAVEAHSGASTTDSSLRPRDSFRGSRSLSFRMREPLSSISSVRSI", "experiment": "Fluorescence dose response cell-based high throughput screening assay for antagonists of the Sphingosine 1-Phosphate Receptor 4 (S1P4). [Related pubchem assays: 1524 (Confirmation in triplicates.), 1510 (Primary screen.)]", "type": "functional"}, "[2]": {"experiment": "Fluorescence-based cell-based high throughput dose response assay for inhibitors of the interaction of nucleotide-binding oligomerization domain containing 2 (NOD2) and the receptor-interacting serine-threonine kinase 2 (RIPK2).", "type": "functional", "conditions": "Homo sapiens"}, "[3]": {"biological_target": "T2, Zinc finger protein mex-5 (Caenorhabditis elegans, UniProt Q9XUB2)", "T2 sequence (Q9XUB2 whole entry)": "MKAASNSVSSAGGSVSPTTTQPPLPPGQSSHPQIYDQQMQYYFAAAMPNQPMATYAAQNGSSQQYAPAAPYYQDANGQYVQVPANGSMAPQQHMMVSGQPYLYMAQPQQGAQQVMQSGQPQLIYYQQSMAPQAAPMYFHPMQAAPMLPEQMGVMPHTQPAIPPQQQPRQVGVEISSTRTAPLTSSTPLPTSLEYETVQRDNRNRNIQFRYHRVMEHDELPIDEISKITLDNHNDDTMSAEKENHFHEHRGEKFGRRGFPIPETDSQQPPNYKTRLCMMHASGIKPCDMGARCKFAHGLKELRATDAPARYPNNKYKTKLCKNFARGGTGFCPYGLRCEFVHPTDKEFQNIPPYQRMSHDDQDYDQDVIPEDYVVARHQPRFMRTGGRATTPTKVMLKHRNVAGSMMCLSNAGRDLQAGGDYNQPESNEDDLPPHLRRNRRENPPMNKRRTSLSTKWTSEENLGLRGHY", "experiment": "potency of MEX-5 RNA-binding blockers – biochemical, C. elegans, fluorescence polarization, dose response (AID 1960)"}, "[4]": {"biological_target": "Female germline-specific tumor suppressor gld-1 (Caenorhabditis elegans, UniProt Q17339)", "sequence (Q17339 whole entry)": "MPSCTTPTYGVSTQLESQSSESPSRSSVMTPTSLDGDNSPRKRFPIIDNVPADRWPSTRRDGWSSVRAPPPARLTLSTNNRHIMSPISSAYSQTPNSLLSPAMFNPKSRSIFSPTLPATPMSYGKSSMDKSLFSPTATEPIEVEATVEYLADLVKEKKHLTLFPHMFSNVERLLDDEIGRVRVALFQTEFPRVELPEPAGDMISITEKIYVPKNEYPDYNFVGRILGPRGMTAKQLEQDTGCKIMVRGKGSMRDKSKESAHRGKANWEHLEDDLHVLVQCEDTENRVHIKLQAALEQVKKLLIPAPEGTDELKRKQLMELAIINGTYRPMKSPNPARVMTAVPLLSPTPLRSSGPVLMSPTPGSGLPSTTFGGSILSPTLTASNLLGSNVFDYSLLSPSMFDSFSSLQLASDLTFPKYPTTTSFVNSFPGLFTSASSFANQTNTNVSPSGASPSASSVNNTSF", "experiment": "blockers of GLD-1/TGE RNA complex formation – biochemical, fluorescence polarization, C. elegans, dose response (AID 2802);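 note: fluorescence polarization of labeled TGE RNA bound by purified gld-1 protein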"}, "[5]": {"experiment": "Luminescence Cell-Based Dose Response HTS to Identify Inhibitors of 5'UTR Stem-Loop Driven Prion Protein mRNA Translation in H4 Neuroglioblastoma Cells. [Related pubchem assays: 1827 (Project Summary), 1813 (Primary HTS)]", "type": "functional"}, "[6]": {"experiment": "viability loss in THP-1 monocytes – THP-1 cells, cytotoxicity control for Vif-APOBEC3G degradation inhibitor project, dose response (AID 1117359)", "type": "functional", "conditions": "THP-1"}, "Activated CDC42 kinase 1": {"biological_target": "Activated CDC42 kinase 1 (Homo sapiens, UniProt Q07912)", "experiment": "Navigating the Kinome. Panel member name: ACK1", "type": "functional"}, "[7]": {"biological_target": "Non-receptor tyrosine-protein kinase TYK2 (Homo sapiens, UniProt P29597)", "type": "functional"}, "[8]": {"biological_target": "Mitogen-activated protein kinase 10 (Homo sapiens, UniProt P53779)", "sequence (P53779 whole entry)": "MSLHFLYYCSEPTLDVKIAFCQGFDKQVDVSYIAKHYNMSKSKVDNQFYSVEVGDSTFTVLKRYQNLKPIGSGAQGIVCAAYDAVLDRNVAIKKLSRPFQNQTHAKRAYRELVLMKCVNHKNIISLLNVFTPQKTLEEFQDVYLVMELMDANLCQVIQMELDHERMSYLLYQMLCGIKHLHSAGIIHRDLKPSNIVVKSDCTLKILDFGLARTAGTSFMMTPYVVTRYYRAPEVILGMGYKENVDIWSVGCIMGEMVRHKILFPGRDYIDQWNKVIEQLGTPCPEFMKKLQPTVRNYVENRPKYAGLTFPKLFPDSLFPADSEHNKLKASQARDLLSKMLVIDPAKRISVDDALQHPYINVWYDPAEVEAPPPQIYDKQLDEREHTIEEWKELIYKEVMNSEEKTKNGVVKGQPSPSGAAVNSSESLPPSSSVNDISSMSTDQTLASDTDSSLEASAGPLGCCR", "experiment": "Navigating the Kinome. Panel member name: MAPK10", "type": "functional"}, "[9]": {"biological_target": "Serine/threonine-protein kinase 17A (Homo sapiens, UniProt Q9UEE5)", "sequence (Q9UEE5 whole entry)": "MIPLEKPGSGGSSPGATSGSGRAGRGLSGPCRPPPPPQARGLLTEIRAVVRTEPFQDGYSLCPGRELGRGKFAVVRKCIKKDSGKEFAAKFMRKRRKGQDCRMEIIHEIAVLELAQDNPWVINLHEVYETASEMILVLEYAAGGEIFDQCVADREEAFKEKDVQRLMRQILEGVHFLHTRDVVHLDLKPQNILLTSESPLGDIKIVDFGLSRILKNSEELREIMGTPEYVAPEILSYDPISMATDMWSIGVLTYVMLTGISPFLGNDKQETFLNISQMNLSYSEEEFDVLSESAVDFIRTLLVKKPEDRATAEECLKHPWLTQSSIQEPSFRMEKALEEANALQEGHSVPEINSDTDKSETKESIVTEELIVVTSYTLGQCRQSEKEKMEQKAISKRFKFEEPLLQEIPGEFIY", "type": "functional"}, "[10]": {"biological_target": "Serine/threonine-protein kinase TAO1 (Homo sapiens, UniProt Q7L7X3)", "sequence (Q7L7X3 whole entry)": "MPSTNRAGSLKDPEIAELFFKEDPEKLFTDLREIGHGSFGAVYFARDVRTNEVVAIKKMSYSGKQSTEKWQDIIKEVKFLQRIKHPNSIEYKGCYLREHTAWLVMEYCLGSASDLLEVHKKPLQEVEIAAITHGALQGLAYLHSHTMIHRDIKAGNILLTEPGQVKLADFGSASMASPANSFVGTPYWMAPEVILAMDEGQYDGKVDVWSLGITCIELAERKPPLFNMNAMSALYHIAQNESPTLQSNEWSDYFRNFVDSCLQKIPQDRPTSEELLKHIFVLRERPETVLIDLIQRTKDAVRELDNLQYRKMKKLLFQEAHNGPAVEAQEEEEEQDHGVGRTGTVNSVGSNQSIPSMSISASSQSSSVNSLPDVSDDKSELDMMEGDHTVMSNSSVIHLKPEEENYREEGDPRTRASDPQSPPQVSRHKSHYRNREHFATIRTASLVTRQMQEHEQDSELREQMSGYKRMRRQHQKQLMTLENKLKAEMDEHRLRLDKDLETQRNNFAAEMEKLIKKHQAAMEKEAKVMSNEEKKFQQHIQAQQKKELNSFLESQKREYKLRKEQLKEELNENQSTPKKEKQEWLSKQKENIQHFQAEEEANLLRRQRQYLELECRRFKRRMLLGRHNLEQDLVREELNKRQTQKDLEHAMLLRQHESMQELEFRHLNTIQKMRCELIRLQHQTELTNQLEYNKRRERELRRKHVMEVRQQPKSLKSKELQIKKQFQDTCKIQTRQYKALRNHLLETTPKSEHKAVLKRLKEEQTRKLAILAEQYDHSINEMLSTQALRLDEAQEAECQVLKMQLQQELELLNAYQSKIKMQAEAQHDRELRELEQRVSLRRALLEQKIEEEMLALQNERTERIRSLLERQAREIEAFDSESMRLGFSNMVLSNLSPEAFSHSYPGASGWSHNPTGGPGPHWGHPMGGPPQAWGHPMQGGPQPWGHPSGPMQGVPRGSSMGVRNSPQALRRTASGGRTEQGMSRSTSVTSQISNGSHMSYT", "type": "functional"}, "Misshapen-like kinase 1": {"biological_target": "Misshapen-like kinase 1 (Homo sapiens, UniProt Q8N4C8)", "sequence (Q8N4C8 whole entry)": "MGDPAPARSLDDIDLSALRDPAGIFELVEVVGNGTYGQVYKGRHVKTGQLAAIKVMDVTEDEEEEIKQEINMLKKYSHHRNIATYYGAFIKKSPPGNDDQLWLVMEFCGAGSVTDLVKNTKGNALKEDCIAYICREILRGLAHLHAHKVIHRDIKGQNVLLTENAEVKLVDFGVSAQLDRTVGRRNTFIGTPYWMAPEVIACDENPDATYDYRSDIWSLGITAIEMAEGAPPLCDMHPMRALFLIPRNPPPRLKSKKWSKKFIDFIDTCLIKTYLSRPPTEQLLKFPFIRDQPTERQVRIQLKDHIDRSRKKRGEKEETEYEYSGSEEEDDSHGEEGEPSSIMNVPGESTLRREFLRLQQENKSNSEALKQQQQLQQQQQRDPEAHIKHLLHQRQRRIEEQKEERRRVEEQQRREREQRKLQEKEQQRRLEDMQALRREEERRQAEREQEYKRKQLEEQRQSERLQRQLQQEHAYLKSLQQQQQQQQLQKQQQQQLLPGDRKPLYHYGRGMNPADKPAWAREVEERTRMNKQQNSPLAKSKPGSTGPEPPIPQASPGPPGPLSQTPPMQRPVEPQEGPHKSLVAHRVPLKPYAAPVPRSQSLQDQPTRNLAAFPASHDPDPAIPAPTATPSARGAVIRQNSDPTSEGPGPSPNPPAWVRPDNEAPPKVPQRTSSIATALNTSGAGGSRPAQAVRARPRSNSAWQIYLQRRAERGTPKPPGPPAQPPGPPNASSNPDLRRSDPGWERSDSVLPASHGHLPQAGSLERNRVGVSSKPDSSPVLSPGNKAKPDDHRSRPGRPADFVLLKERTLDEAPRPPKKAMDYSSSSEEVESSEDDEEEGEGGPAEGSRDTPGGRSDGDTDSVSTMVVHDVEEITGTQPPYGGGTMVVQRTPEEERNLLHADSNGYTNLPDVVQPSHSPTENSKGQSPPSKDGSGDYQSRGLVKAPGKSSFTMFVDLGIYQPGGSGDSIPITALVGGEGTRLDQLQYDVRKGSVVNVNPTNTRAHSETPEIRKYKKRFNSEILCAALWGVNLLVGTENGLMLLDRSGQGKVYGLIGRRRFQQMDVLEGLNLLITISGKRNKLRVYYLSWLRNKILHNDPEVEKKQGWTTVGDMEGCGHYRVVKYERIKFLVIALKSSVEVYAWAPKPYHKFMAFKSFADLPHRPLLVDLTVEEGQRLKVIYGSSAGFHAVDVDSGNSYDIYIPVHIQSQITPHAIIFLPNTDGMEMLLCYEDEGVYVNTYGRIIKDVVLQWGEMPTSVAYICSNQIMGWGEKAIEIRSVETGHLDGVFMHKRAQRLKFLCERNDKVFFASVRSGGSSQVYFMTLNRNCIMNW", "type": "functional"}, "[11]": {"biological_target": "Proto-oncogene tyrosine-protein kinase receptor Ret (Homo sapiens, UniProt P07949)", "type": "functional"}, "[12]": {"biological_target": "Kappa-type opioid receptor (Homo sapiens, UniProt P41145)", "sequence (P41145 whole entry)": "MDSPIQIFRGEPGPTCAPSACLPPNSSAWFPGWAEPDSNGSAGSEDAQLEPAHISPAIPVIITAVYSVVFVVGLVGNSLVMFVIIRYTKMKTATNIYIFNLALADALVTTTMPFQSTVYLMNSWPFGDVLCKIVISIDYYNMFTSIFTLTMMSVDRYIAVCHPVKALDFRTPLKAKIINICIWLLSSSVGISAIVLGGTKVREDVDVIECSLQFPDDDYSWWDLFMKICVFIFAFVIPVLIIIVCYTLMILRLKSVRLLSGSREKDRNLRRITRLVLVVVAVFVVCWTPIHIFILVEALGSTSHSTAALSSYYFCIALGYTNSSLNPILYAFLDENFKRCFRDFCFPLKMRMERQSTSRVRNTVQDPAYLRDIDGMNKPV", "type": "functional"}, "[13]": {"biological_target": "Mitogen-activated protein kinase kinase kinase kinase 5 (Homo sapiens, UniProt Q9Y4K4)", "type": "functional"}, "[14]": {"biological_target": "Casein kinase I isoform delta (Homo sapiens, UniProt P48730)", "sequence (P48730 whole entry, canonical isoform)": "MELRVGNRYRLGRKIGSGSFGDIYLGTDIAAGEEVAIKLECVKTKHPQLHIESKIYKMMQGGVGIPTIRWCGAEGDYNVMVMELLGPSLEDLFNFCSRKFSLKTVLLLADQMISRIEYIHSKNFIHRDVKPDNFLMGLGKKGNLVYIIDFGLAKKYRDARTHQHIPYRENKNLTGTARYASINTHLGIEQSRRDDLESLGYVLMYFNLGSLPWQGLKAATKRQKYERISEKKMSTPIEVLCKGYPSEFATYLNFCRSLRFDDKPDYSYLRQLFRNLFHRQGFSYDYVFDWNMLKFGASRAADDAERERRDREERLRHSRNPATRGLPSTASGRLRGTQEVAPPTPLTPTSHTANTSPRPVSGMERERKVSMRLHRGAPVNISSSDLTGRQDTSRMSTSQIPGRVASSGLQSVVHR", "type": "functional"}}, "note": "Calls of active or inactive are those of the source.", "data": [{"smiles": "COC(=O)CCS(=O)(=O)c1nc(-c2ccccc2)cc(C(F)(F)F)n1", "values": [{"measurement": "IC50", "setting": "[1]", "result": "1.34 µM (active)"}, {"measurement": "IC50", "setting": "[2]", "result": "3.08 µM (active)"}]}, {"smiles": "O=C(O)c1ccc2c3c(ncnc13)-c1ccccc1C2=O", "values": [{"measurement": "EC50", "setting": "[3]", "result": "31.9 µM (active)"}, {"measurement": "IC50", "setting": "[4]", "result": "3.51 µM (active)"}, {"measurement": "EC50", "setting": "[5]", "result": "1.32 µM (active)"}]}, {"smiles": "CCOC(=O)c1c2c(n(Cc3ccccc3)c1C)C(=O)C(=O)c1ccccc1-2", "values": [{"measurement": "CC50", "setting": "[6]", "result": "0.87 µM (active)"}]}, {"smiles": "Cc1ccc2nccc(NC(=O)Nc3cccc(C(F)(F)F)n3)c2c1", "values": [{"measurement": "Ki", "setting": "Activated CDC42 kinase 1", "result": "> 3.98 µM (inactive)"}, {"measurement": "Ki", "setting": "[7]", "result": "> 2 µM (inactive)"}, {"measurement": "Ki", "setting": "[8]", "result": "> 3.16 µM (inactive)"}, {"measurement": "Ki", "setting": "[9]", "result": "> 3.98 µM (inactive)"}, {"measurement": "Ki", "setting": "[10]", "result": "> 6.31 µM (inactive)"}, {"measurement": "Ki", "setting": "Misshapen-like kinase 1", "result": "0.2 µM (active)"}, {"measurement": "Ki", "setting": "[11]", "result": "> 2 µM (inactive)"}]}, {"smiles": "Cc1c(/N=C2\\C=CC(=O)c3ccccc32)c(=O)n(-c2ccccc2)n1C", "values": [{"measurement": "IC50", "setting": "[12]", "result": "12.1 µM (active)"}]}, {"smiles": "COc1cc2c(cc1F)C(c1ccccc1Cl)=Nc1c(n[nH]c1C)N2", "note": "[RG-1530]", "values": [{"measurement": "Ki", "setting": "[13]", "result": "> 2.51 µM (inactive)"}, {"measurement": "Ki", "setting": "[14]", "result": "> 7.94 µM (inactive)"}]}]}
